Experimental data from patent EP1059033A1, “INDUSTRIAL ANTIBACTERIAL/ANTIFUNGAL AGENTS, ALGICIDES AND ANTI-BIOLOGICAL ADHESION AGENTS CONTAINING BENZYLAMINES” (Nissan Chemical Industries, Ltd., priority 1998, dated 1999).
Values after ≈ are worked out from the molar mass of the structure shown. Like-named read-outs stand apart in the source and are kept apart here.

Assays:
Assay type in all cases: cell-based
[1] = test system: Trichophyton mentagrophytes; settings: 72 h, 100 ppm
Description: 31.3 ml of Trichophyton mentagrophytes to be tested was added to 125 ml of a potato dextrose agar culture medium (Nissui Seiyaku Co.). The medium was stirred not to foam the solutions, poured into plates uniformly and solidified.
Thereafter, predetermined amounts of the compounds of the invention were weighted and diluted with acetone to predetermined concentrations.
Paper disks were impregnated with samples containing predetermined amounts of the compounds of the invention, laid on a filter, dried with air and placed on a plate containing test microbe at equal intervals.
Trichophyton mentagrophytes was cultured at 28 °C for 3 days in a thermostatic chamber and the diameter of each inhibiting zone was measured to evaluate the activity of each compound. Symbols in the table mean the followings; • A: Trichophyton mentagrophytes, • ++: strongly inhibiting zone (equal to or more than 21 mm) is observed, • +: inhibiting zone (10 to 20 mm) is observed, • -: no inhibiting zone is observed.

[2] = test system: Aspergillus niger; assay: Agar dilution MIC (Example 3); settings: 168 h, agar plate, 27 °C, 7 days
Description: (§1) Series of diluted samples (20000, 10000, 5000, 2500, 1250, 625, 313, 156, 78, 39 mg/l) of the compounds of the invention were prepared using dimethylsulfoxide. A sensitive culture medium-N (Nissui Seiyaku Co.) was used for bacteria and a potato dextrose agar culture medium (Nissui Seiyaku Co.) was used for fungi. 0.5 ml of each sample was added to and mixed with 9.5 ml of the culture medium, poured into a Petri dish and solidified to obtain a plate. As a result, the concentration of the compounds of the invention in the agar culture medium were 1000, 500, 250, 125, 62.5, 31.3, 15.6, 7.8, 3.9, 2.0 mg/l. The bacterium inoculated were cultured in a bouillon for the assay of sensitivity (Nissui Seiyaku Co.) at 37 °C for 20 hours, and the fungi were cultured in the potato dextrose agar culture medium (Nissui Seiyaku Co.) for 10 days and then a 10^6 CFU/ml suspension was prepared from each of them. A test bacteria or fungi suspension was streaked on an agar plate containing the compound of the present invention with platinum wire loop, and the agar plate was cultured at 37±1 °C for 18 to 20 hours for bacteria or at 27 °C for 7 days for fungi. A concentration at which no growth was seen was taken as minimum inhibitory concentration (MIC). Symbols in the tables mean the followings; • A: Bacillus subtilis, • B: Trichophyton mentagrophytes, • C: Staphylococcus aureus, • D: Aspergillus niger, • E: Penicillium funiculosum, • F: Candida albicans, • G: Micrococcus luteus, • H: Corynebacterium aquaticum, • I: Chaetomium globosum, • J: Fusarium moniliforme, • K: Saccharomyces cerevisiae, • L: Rhodotorula rubra, • M: Cladosporium cladosporioides, • N: Alternaria alternata.

[3] = test system: Chaetomium globosum; assay: Agar dilution MIC (Example 3); settings: 168 h, agar plate, 27 °C, 7 days
Description: as §1

[4] = test system: Cladosporium cladosporioides; assay: Agar dilution MIC (Example 3); settings: 168 h, agar plate, 27 °C, 7 days
Description: as §1

[5] = test system: Corynebacterium aquaticum; assay: Agar dilution MIC (Example 3); settings: Leifsonia aquatica, agar plate, 37±1 °C, 18 to 20 hours
Description: as §1

[6] = test system: Fusarium moniliforme; assay: Agar dilution MIC (Example 3); settings: Fusarium verticillioides, 168 h, agar plate, 27 °C, 7 days
Description: as §1

[7] = test system: Penicillium funiculosum; assay: Agar dilution MIC (Example 3); settings: Talaromyces funiculosus, 168 h, agar plate, 27 °C, 7 days
Description: as §1

[8] = test system: Rhodotorula rubra; assay: Agar dilution MIC (Example 3); settings: 168 h, agar plate, 27 °C, 7 days
Description: as §1

[9] = test system: Saccharomyces cerevisiae; assay: Agar dilution MIC (Example 3); settings: 168 h, agar plate, 27 °C, 7 days
Description: as §1

[10] = test system: Trichophyton mentagrophytes; assay: Agar dilution MIC (Example 3); settings: 168 h, agar plate, 27 °C, 7 days
Description: as §1

[11] = test system: freshwater green alga (Selenastrum capricornutum); assay: Inhibition of propagation of freshwater green alga (Example 4); settings: after 72 hours, cell number vs non-treated lot; for inhibition at 0.05 ppm: 50ppb, read-out: Propagation inhibiting rate(%) 50ppb; for inhibition at 0.5 ppm: 500ppb, read-out: Propagation inhibiting rate(%) 500ppb
Description: A predetermined amount of each of the compounds of the invention was dissolved in a culture medium containing 10^5 /ml of a freshwater green alga (Selenastrum capricornutum) at a logarithmic growth phase to prepare samples having a concentration of the compound of the invention in the medium of 500 ppb and 50ppb respectively. The samples were stationary cultured at 23±1 °C for […] under continuous illumination.
After 72 hours, the number of cells was measured using a hemacytometer to obtain propagation rate. The propagation inhibiting rate was calculated from comparison with the non-treated lot.

[12] = test system: freshwater green alga (Scenedesmus pannonicus); assay: Inhibition of propagation of freshwater algae (Example 6); settings: Desmodesmus pannonicus, 500ppb
Description: (§2) A predetermined amount each of the compounds of the invention was dissolved in a culture medium containing 10^5 /ml of a freshwater alga at a logarithmic growth phase to prepare samples having a concentration of the compound of the invention in the medium of 500 ppb and 50 ppb respectively. A shaking culture at 100 rpm was performed for […] under continuous illumination at 20±2 °C for freshwater diatom and at 23±2 °C for other algae.
(§3) After 72 hours and 168 hours, the […] of cells was measured using a hemacytometer to obtain propagation rate. The propagation inhibiting rate was calculated from comparison with the non-treated lot. Symbols in the tables mean the followings; • A: freshwater green alga (Chlorella pyrenoidosa), • B: freshwater blue-green alga (Microcystis aeruginosa), • C: freshwater diatom (Diatoma elongatum), • D: freshwater green alga (Scenedesmus pannonicus).

[13] = test system: Alternaria alternata; assay: Agar dilution MIC (Example 3); settings: 168 h, agar plate, 27 °C, 7 days
Description: as §1

[14] = test system: freshwater blue-green alga (Microcystis aeruginosa); assay: Inhibition of propagation of freshwater algae (Example 6); settings: 500ppb
Description: as §2, §3

[15] = test system: freshwater green alga (Chlorella pyrenoidosa); assay: as above; settings: Auxenochlorella pyrenoidosa, 500ppb
Description: as §2, §3

[16] = test system: Trichophyton mentagrophytes; assay: Agar dilution MIC (Example 2); settings: 168 h, agar plate, 27 °C, 7 days
Description: Series of diluted samples (20000, 10000, 5000, 2500, 2000, 1250, 625, 313, 156, 78, 39, 20, 10, 5, 2.5, 1.25 mg/l) of the compounds of the invention were prepared using dimethylsulfoxide. A sensitive culture medium-N (Nissui Seiyaku Co.) was used for bacteria and a potato dextrose agar culture medium (Nissui Seiyaku Co.) was used for fungi. 0.5 ml of each sample was added to and mixed with 9.5 ml of the culture medium, poured into a Petri dish and solidified to obtain a plate. As a result, the concentration of the compounds of the invention in the agar culture medium were 1000, 500, 250, 125, 100, 62.5, 31.3, 15.6, 7.8, 3.9, 2.0, 1.0, 0.5, 0.25, 0.125, 0.062 mg/l. The bacterium inoculated were cultured in a bouillon for the assay of sensitivity (Nissui Seiyaku Co.) at 37 °C for 20 hours, and the fungi were cultured in the potato dextrose agar culture medium (Nissui Seiyaku Co.) for 10 days and then a 10^6 CFU/ml suspension was prepared from each of them. A test bacteria or fungi suspension was streaked on an agar plate containing the compound of the present invention with platinum wire loop, and the agar plate was cultured at 37±1 °C for 18 to 20 hours for bacteria or at 27 °C for 7 days for fungi. A concentration at which no growth was seen was taken as minimum inhibitory concentration [MIC(mg/l)]. Symbols in the table mean the followings; • A: Bacillus subtilis, • B: Trichophyton mentagrophytes, • C: Rhodotorula mucilaginosa.

[17] = test system: freshwater diatom (Diatoma elongatum); assay: Inhibition of propagation of freshwater algae (Example 6); settings: Diatoma tenuis; for inhibition at 0.05 ppm: 50ppb; for inhibition at 0.5 ppm: 500ppb
Description: as §2, §3

[18] = 72hr, read-out: Propagation inhibiting rate (%) 500ppb 72hr
[19] = 168hr, read-out: Propagation inhibiting rate (%) 500ppb 168hr
[20] = 72hr, read-out: Propagation inhibiting rate(%) 500ppb 72hr
[21] = 168hr, read-out: Propagation inhibiting rate(%) 500ppb 168hr

Row | SMILES | Judgment (Target bacteria: A) [1] | MIC [2] [µg/mL] | MIC [3] [µg/mL] | MIC [4] [µg/mL] | MIC [5] [µg/mL] | MIC [6] [µg/mL] | MIC [7] [µg/mL] | MIC [8] [µg/mL] | MIC [9] [µg/mL] | inhibition at 0.05 ppm [11] [%] | inhibition at 0.5 ppm [11] [%] | inhibition at 0.5 ppm [12, 18] [%] | inhibition at 0.5 ppm [12, 19] [%] | inhibition at 0.5 ppm [14, 20] [%] | inhibition at 0.5 ppm [14, 21] [%] | inhibition at 0.5 ppm [15, 21] [%] | MIC [16] [µg/mL] | other results
1 | Cc1cc(C)cc(CN(C)Cc2ccc(C(C)(C)C)cc2)c1 [Compound 2] | ++ (strongly inhibiting zone (equal to or more than 21 mm) is observed) | 125 (≈ 423 µM) | 31.3 (≈ 106 µM) | 125 (≈ 423 µM) | 31.3 (≈ 106 µM) | 63 (≈ 213 µM) | 31.3 (≈ 106 µM) | 125 (≈ 423 µM) | 63 (≈ 213 µM) | 84 | 96 | 91 | 99 | – | – | – | – | MIC [10]: < 2 µg/mL
2 | Cc1cccc(C)c1CN(C)Cc1ccc(C(C)(C)C)cc1 [Compound 5] | ++ (strongly inhibiting zone (equal to or more than 21 mm) is observed) | < 2 | 15.6 (≈ 52.8 µM) | 31.3 (≈ 106 µM) | 7.8 (≈ 26.4 µM) | 7.8 (≈ 26.4 µM) | 15.6 (≈ 52.8 µM) | 63 (≈ 213 µM) | 63 (≈ 213 µM) | – | 75 | 76 | 78 | 56 | 62 | 62 | – | MIC [13]: 125 µg/mL (≈ 423 µM)
3 | CN(Cc1ccc(C(C)(C)C)cc1)C1CCCc2ccccc21 (stereo not shown) [Compound 6] | ++ (strongly inhibiting zone (equal to or more than 21 mm) is observed) | – | – | 125 (≈ 407 µM) | 15.6 (≈ 50.7 µM) | – | – | – | 31.3 (≈ 102 µM) | – | 70 | – | – | – | – | 79 | < 0.062 | –
4 | Cc1ccc(C)c(CN(C)Cc2ccc(C(C)(C)C)cc2)c1 [Compound 8] | ++ (strongly inhibiting zone (equal to or more than 21 mm) is observed) | 7.8 (≈ 26.4 µM) | 63 (≈ 213 µM) | 63 (≈ 213 µM) | 31.3 (≈ 106 µM) | – | 31.3 (≈ 106 µM) | 125 (≈ 423 µM) | 125 (≈ 423 µM) | – | 90 | 72 | 86 | – | – | 86 | – | –
5 | CC(c1ccccc1Cl)N(C)Cc1ccc(C(C)(C)C)cc1 (stereo not shown) [Compound 9] | ++ (strongly inhibiting zone (equal to or more than 21 mm) is observed) | – | – | – | – | – | – | – | – | 59 | 94 | – | 85 | 97 | 98 | – | 0.5 (≈ 1.58 µM) | inhibition at 0.05 ppm ([17]; 72hr, read-out: Propagation inhibiting rate(%) 50ppb 72hr): 88%; inhibition at 0.05 ppm ([17]; 168hr, read-out: Propagation inhibiting rate(%) 50ppb 168hr): 94%; inhibition at 0.5 ppm [17, 20]: 76%; inhibition at 0.5 ppm [17, 21]: 100%; inhibition at 0.5 ppm [15, 20]: 70%
